Measurements taken from publication PMC9354638, “Targeting p21-activated kinase 4 (PAK4) with pyrazolo[3,4-d]pyrimidine derivative SPA7012 attenuates hepatic ischaemia-reperfusion injury in mice” (Journal of Enzyme Inhibition and Medicinal Chemistry, 2022).

Molecular target: T1, PAK4 (Homo sapiens, UniProt O96013)
T1 construct: purchased Reaction Biology Corporation (Malvern, PA, USA)
Test: HotSpot kinase assay (Reaction Biology Corp.), PAK4 enzyme inhibition
Assay type: biochemical
Details: ATP 10 μM; for inhibition at 20 µM: relative percentage inhibition at 20 μM of compounds with staurosporine, read-out: PAK4 enzyme inhibition % inhibitory activity; for IC50: 10-dose, 3-fold serial dilution starting at 100 μM
Protocol: To examine the enzyme activity, HotSpot kinase assay was performed at Reaction Biology Corporation (Malvern, PA, USA). The kinase and substrate pairs were prepared in reaction buffer: 20 mM HEPES at pH 7.5, 10 mM MgCl2, 1 mM EGTA, 0.02% Brij 35, 0.02 mg/mL BSA, 0.1 mM Na3VO4, 2 mM DTT, and 1% DMSO. Compounds were added into the kinase reaction mixture and incubated for 20 min. Then, ^32 P-ATP was introduced to the mixture to initiate the reaction carried out at 10 μM of ATP concentration. After 2 h at room temperature, the mixture was spotted onto P81 ion exchange paper and kinase activity was then evaluated utilising the filter-binding method. Compounds were tested for single dose enzyme inhibition at a concentration of 20 μM. For the control compound, staurosporine was tested in a 10-dose IC50 mode. To determine the IC50 value, the compounds were tested for 10-doses with 3-fold serial dilution starting at 100 μM.
Synthesised compounds were evaluated for their in vitro PAK4 enzyme inhibitory activities. In vitro kinase assays were performed using HotSpot kinase assays for relative enzyme inhibitory activity at a single concentration (20 μM) and IC50 assessment at an ATP concentration of 10 μM (Figure 1(B)). […] For the allosteric pocket binder, cyclohexyl group (SPA7012) was preferable to the smaller dimethyl (SPA7011) or hydroxymethyl group (SPA7013), and the aromatic ring (SPA7014) reduced activity compared to the saturated ring (SPA7012). In vitro enzyme IC50 values appeared in the order of SPA7012, SPA7017, and SPA7016. […] Molecular docking analysis was performed on the human PAK4 catalytic domain structure complexed with GNE-2861 (PDB code: 4O0V). The binding pose of SPA7012 overlapped well with the crystal structure of GNE-2861, with the allosteric binder properly positioned in the specific back pocket. The oxygen atom in the tertiary alcohol of the hydrophobic allosteric binder formed hydrogen bonds with the backbone of Phe459 and the side chain of Glu366 (Figure 1(D)). The amine group and nitrogen atom in the pyrazolo[3,4-d]pyrimidine core scaffold also formed hydrogen bonds with Lue398 at the hinge region. Finally, SPA7012 was decided as a lead compound for further examination with satisfactory potency and subtype selectivity.

T1 sequence (O96013 whole entry): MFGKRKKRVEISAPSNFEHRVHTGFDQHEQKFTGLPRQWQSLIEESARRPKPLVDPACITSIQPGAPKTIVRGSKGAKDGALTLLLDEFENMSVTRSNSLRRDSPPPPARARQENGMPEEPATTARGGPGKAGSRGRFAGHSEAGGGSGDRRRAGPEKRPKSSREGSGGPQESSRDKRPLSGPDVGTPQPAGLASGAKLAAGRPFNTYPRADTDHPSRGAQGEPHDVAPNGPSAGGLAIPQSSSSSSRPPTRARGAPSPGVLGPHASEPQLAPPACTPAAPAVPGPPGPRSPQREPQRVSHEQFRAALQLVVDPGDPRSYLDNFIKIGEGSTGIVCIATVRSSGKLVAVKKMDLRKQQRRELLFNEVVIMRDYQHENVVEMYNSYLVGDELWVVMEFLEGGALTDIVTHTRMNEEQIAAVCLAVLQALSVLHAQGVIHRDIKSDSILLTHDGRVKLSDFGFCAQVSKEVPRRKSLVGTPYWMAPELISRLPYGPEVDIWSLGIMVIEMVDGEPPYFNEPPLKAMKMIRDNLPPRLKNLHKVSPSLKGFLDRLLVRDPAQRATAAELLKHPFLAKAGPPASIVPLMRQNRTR

inhibition at 20 µM [%]	IC50 [µM]	Structure (SMILES)
90	4.41	Nc1ncnc2c1c(CCCN1CCCCC1)nn2-c1cccc(C#CC2(O)CCCCC2)c1 [Compound 18b, (3-[4-Amino-3–(3-piperidin-1-ylpropyl)pyrazolo[3,4-d]pyrimidin-1-yl]phenylethynyl)cyclohexanol]
65	–	Cc1nn(-c2cccc(C#CC(C)(O)c3ccccc3)c2)c2ncnc(N)c12 (centres unmarked) [Compound 14d, 4–(3-(4-Amino-3-methylpyrazolo[3,4-d]pyrimidin-1-yl)phenyl)-2-phenylbutyn-2-ol]
36	–	Cc1nn(-c2cccc(C#CC(C)(O)CO)c2)c2ncnc(N)c12 (centres unmarked) [Compound 14c, 4–(3-(4-Amino-3-methylpyrazolo[3,4-d]pyrimidin-1-yl)phenyl)-2-methylbutyn-1,2-diol]

Second part, the molecule before the results:

Structure (SMILES)	inhibition at 20 µM [%]	IC50 [µM]
CC(C)(O)C#Cc1cccc(-n2c3ccccc3c3c(N)nccc32)c1 [Compound 10a, 4–(3–(1-Aminopyrido[4,3-b]indol-5-yl)phenyl)-2-methylbutyn-2-ol]	32	–
Nc1nccc2c1c1ccccc1n2-c1cccc(C#CC2(O)CCCCC2)c1 [Compound 10b, 3-(1-Aminopyrido[4,3-b]indol-5-yl)phenylethynylcyclohexan-1-ol]	54	34
Cc1nn(-c2cccc(C#CC(C)(C)O)c2)c2ncnc(N)c12 [Compound 14a, 4–(3–(4-Amino-3-methylpyrazolo[3,4-d]pyrimidin-1-yl)phenyl)-2-methylbutyn-2-ol]	60	–
Nc1ncnc2c1c(CCCN1CCOCC1)nn2-c1cccc(C#CC2(O)CCCCC2)c1 [Compound 18a, (3–(4-Amino-3–(3-morpholin-4-ylpropyl)pyrazolo[3,4-d]pyrimidin-1-yl)phenylethynyl)cyclohexanol]	88	9.92
CC(O)(C#Cc1cccc(-n2c3ccccc3c3c(N)nccc32)c1)CO (centres unmarked) [Compound 10c, 4–(3-(1-Aminopyrido[4,3-b]indol-5-yl)phenyl)-2-methylbutyn-1,2-diol]	29	–
